Reference: patent US8324245B2, “Quinoline derivative and quinazoline derivative inhibiting self-phosphorylation of hepatocytus proliferator receptor, and medicinal composition containing the same” (Kyowa Hakko Kirin Co., Ltd., priority 2001, dated 2012)

molecular target: T1, met (HGF receptor) in human gastric cancer cells MKN45 (Homo sapiens, UniProt P08581); test: Inhibitory activity against met-autophosphorylation using ELISA method (2), MKN45 cells, HGF-independent; type: cell-based
T1 construct: endogenous in cells; host or cells: MKN45 human gastric cancer cells
T1 sequence (P08581 25-1390): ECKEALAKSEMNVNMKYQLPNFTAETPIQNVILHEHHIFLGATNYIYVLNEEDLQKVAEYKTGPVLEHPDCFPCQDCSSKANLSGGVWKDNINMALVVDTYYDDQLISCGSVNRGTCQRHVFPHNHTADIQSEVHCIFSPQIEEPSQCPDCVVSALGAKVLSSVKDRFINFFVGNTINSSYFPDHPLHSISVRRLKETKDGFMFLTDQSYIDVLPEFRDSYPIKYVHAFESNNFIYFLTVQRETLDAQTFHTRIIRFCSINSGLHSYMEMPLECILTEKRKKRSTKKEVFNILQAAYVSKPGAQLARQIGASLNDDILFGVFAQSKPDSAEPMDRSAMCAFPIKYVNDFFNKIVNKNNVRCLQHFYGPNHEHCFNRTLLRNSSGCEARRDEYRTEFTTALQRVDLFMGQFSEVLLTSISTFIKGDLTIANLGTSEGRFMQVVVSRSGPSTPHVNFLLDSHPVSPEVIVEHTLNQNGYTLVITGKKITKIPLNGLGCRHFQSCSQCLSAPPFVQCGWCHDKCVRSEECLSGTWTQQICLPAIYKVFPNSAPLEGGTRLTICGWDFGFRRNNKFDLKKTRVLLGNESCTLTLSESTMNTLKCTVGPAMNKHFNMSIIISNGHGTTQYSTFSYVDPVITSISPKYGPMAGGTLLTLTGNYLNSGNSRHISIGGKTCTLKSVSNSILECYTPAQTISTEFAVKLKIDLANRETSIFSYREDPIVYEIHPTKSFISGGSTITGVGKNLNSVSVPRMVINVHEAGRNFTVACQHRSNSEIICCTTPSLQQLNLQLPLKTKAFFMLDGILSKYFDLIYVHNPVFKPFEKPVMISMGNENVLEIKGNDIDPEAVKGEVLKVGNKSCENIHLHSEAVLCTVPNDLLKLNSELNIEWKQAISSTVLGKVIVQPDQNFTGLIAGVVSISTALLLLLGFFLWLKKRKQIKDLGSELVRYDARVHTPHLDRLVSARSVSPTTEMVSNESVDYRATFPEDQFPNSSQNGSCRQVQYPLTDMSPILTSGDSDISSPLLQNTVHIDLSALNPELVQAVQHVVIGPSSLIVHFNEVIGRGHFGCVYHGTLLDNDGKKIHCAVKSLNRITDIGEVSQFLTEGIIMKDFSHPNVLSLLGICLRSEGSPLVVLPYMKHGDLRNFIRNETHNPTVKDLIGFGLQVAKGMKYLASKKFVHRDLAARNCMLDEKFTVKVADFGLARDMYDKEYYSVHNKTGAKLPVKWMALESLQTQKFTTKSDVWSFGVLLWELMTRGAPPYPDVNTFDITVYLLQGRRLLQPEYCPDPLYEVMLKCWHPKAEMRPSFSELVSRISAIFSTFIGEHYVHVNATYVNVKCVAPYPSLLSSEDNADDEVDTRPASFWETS
How it was run: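 Met autophosphorylation was read by sandwich ELISA: phosphotyrosine capture (PY20), anti-HGF receptor detection, peroxidase read-out at 450 nm. Lysates came from MKN45 gastric cancer cells kept in 0.1% FCS RPMI and treated 1 h at 37 °C with test compound, with no added HGF.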

IC50 [nM]	Structure (SMILES)
276	COc1ccccc1CC(=O)NC(=S)Nc1ccc(Oc2ccnc3cc(OC)c(OC)cc23)cc1F [Example 169, 1-[4-(6,7-dimethoxyquinolin-4-yloxy)-2-fluorophenyl]-3-[2-(2-methoxyphenyl)acetyl]thiourea]
373	COc1cc2nccc(Oc3ccc(NC(=S)NC(=O)Cc4ccccc4[N+](=O)[O-])cc3Cl)c2cc1OC [Example 156, 1-[3-chloro-4-(6,7-dimethoxyquinolin-4-yloxy)phenyl]-3-[2-(2-nitrophenyl)acetyl]thiourea]
284	COc1cc2nccc(Oc3ccc(NC(=S)NC(=O)Cc4cc(F)cc(F)c4)cc3F)c2cc1OC [Example 197, 1-[2-(3,5-difluorophenyl)acetyl]-3-[4-(6,7-dimethoxyquinolin-4-yloxy)-3-fluorophenyl]thiourea]
291	COc1cc2nccc(Oc3ccc(NC(=S)NC(=O)Cc4cc(F)ccc4F)cc3F)c2cc1OC [Example 195, 1-[2-(2,5-difluorophenyl)acetyl]-3-[4-(6,7-dimethoxyquinolin-4-yloxy)-3-fluorophenyl]thiourea]
344	COc1cc2nccc(Oc3ccc(NC(=O)C(C)(C)C(=O)Nc4ccc(F)cc4F)cc3)c2cc1OC [Example 104, N-(2,4-difluorophenyl)-N′-[4-(6,7-dimethoxy-quinolin-4-yloxy)phenyl]-2,2-dimethylmalonamide]
241	COc1cc2nccc(Oc3ccc(NC(=S)NC(=O)Cc4ccc(F)c(F)c4)cc3F)c2cc1OC [Example 199, 1-[2-(3,4-difluorophenyl)acetyl]-3-[4-(6,7-dimethoxyquinolin-4-yloxy)-3-fluorophenyl]thiourea]
22.5	COc1cc2c(Oc3ccc(NC(=O)NC(=O)Cc4ccccc4)c(F)c3)ccnc2cc1OCCCN1CCOCC1 [Example 287]
1630	COc1cc2nccc(Oc3ccc(NC(=S)NC(=O)c4ccc(C)s4)cc3)c2cc1OC [Example 160, 1-[4-(6,7-dimethoxyquinolin-4-yloxy)phenyl]-3-(5-methylthiophen-2-carbonyl)thiourea]
4.4	COc1cc(Oc2ccnc3cc(OC)c(OC)cc23)ccc1NC(=S)NC(=O)Cc1ccccc1 [Example 69, 1-[4-(6,7-dimethoxyquinolin-4-yloxy)-2-methoxyphenyl]-3-phenylacetylthiourea]
319	COc1cc2nccc(Oc3ccc(NC(=S)NC(=O)Cc4cccc(F)c4F)c(F)c3)c2cc1OC [Example 194, 1-[2-(2,3-difluorophenyl)acetyl]-3-[4-(6,7-dimethoxyquinolin-4-yloxy)-2-fluorophenyl]thiourea]
19	COc1cc2c(Oc3ccc(NC(=S)NC(=O)Cc4ccccc4)cc3F)ccnc2cc1OCCN1CCOCC1 [Example 276]
2380	CCN(CC)CC(=O)NC(=O)Nc1ccc(Oc2ccnc3cc(OC)c(OC)cc23)c(Cl)c1 [Example 110, 1-[3-chloro-4-(6,7-dimethoxyquinolin-4-yloxy)phenyl]-3-(2-diethylaminoacetyl)urea]
25.6	COc1cc2nccc(Oc3ccc(NC(=O)CC(=O)Nc4ccc(F)cc4F)cc3F)c2cc1OC [Example 99, N-(2,4-difluorophenyl)-N′-[4-(6,7-dimethoxy-quinolin-4-yloxy)-3-fluorophenyl]malonamide]
271	COc1cc2nccc(Oc3ccc(NC(=O)NC(=O)Cc4ccccc4C(F)(F)F)cc3F)c2cc1OC [Example 137, 1-[4-(6,7-dimethoxyquinolin-4-yloxy)-3-fluorophenyl]-3-[2-(2-trifluoromethylphenyl)acetyl]urea]
344	COc1cc2nccc(Oc3ccc(NC(=O)NC(=O)CSC4CCCC4)cc3Cl)c2cc1OC [Example 116, 1-[3-chloro-4-(6,7-dimethoxyquinolin-4-yloxy)phenyl]-3-(2-cyclopentylsulfanylacetyl)urea]
14.6	COc1cc2c(Oc3ccc(NC(=O)NC(=O)Cc4ccccc4)cc3F)ccnc2cc1OCCN1CCC(CO)CC1 [Example 283]
329	COc1cc2nccc(Oc3ccc(NC(=O)NC(=O)Nc4ccc(Cl)cn4)cc3)c2cc1OC [Example 231, N-(5-chloro-2-pyridyl)-({[4-(6,7-dimethoxy-quinolin-4-yloxy)anilino]carbonyl}amino)methanamide]
18.9	COc1cc2nccc(Oc3ccc(NC(=O)CC(=O)Nc4ccc(F)cc4)cc3)c2cc1OC [Example 5, N-[4-(6,7-dimethoxyquinolin-4-yloxy)phenyl]-N′-(4-fluorophenyl)malonamide]

IC50 [nM]	Structure (SMILES)
2160	COc1cc2nccc(Oc3ccc(NC(=O)NC(=O)CSc4nccn4C)cc3Cl)c2cc1OC [Example 130, 1-[3-chloro-4-(6,7-dimethoxyquinolin-4-yloxy)phenyl]-3-[2-(1-methyl-1H-imidazol-2-ylsulfanyl)-acetyl]urea]
4360	COc1cc2nccc(Oc3ccc(NC(=O)CC(=O)Nc4cccnc4)cc3)c2cc1OC [Example 227, N-[4-(6,7-dimethoxyquinolin-4-yloxy)phenyl]-N′-pyridin-3-ylmalonamide]
22	COc1cc2c(Oc3ccc(NC(=O)NC(=O)Cc4ccccc4)cc3F)ccnc2cc1OCC(O)CN1CCOCC1 (centres unmarked) [Example 337, 1-{3-Fluoro-4-[7-(2-hydroxy-3-morpholin-1-yl-propoxy)-6-methoxy-quinolin-4-yloxy]-phenyl}-3-(2-phenyl-acetyl)-urea]
1810	COc1cc2nccc(Oc3ccc(NC(=O)NC(=O)CN4CCCC4)cc3Cl)c2cc1OC [Example 111, 1-[3-chloro-4-(6,7-dimethoxyquinolin-4-yloxy)phenyl]-3-(2-pyrrolidin-1-ylacetyl)urea]
357	COc1cc2nccc(Oc3ccc(NC(=O)NC(=O)Nc4c(C)cccc4C)cc3)c2cc1OC [Example 258, N-(2,6-dimethylphenyl)-({[4-(6,7-dimethoxy-quinolin-4-yloxy)anilino]carbonyl}amino)methanamide]
51.8	COc1cc2c(Oc3ccc(NC(=S)NC(=O)Cc4ccc(F)cc4)cc3F)ccnc2cc1OCC(O)CN1CCCCC1 (centres unmarked) [Example 329, 1-{3-Fluoro-4-[7-(2-hydroxy-3-piperidin-1-yl-propoxy)-6-methoxy-quinolin-4-yloxy]-phenyl}-3-[2-(4-fluoro-phenyl)-acetyl]-thiourea]
653	COc1cc2nccc(Oc3ccc(NC(=O)NC(=O)CSC4CCCCC4)cc3)c2cc1OC [Example 113, 1-(2-cyclohexylsulfanylacetyl)-3-[4-(6,7-dimethoxyquinolin-4-yloxy)phenyl]urea]
37.1	COc1cc2nccc(Oc3ccc(NC(=O)NC(=O)Cc4cccs4)cc3)c2cc1OC [Example 29, 1-[4-(6,7-dimethoxyquinolin-4-yloxy)phenyl]-3-(2-thiophen-2-ylacetyl)urea]
2480	COc1cc2nccc(Oc3ccc(NC(=S)NC(=O)CCCCl)cc3F)c2cc1OC [Example 148, 1-(4-chloro-butyryl)-3-[4-(6,7-dimethoxy-quinolin-4-yloxy)-3-fluorophenyl]thiourea]
104	COc1cc2nccc(Oc3ccc(NC(=O)NC(=O)Nc4cc(C)ccn4)cc3)c2cc1OC [Example 105, N-(4-methyl-2-pyridyl)-({[4-(6,7-dimethoxy-quinolin-4-yloxy)anilino]carbonyl}amino)methanamide]
465	COc1cc2nccc(Oc3ccc(NC(=S)NC(=O)[C@H](C)c4ccccc4)cc3)c2cc1OC [Example 158, 1-[4-(6,7-dimethoxyquinolin-4-yloxy)phenyl]-3-(2-phenylpropionyl)thiourea]
291	COc1cc2c(Oc3ccc(NC(=O)NC(=O)Cc4ccccc4)cc3F)ccnc2cc1OCCCCl [Example 14, 1-{4-[7-(3-chloro-propoxy)-6-methoxyquinolin-4-yloxy]-3-fluorophenyl}-3-phenylacetylurea]
359	COc1cc2nccc(Oc3ccc(NC(=O)NC(=O)CSC4CCCCC4)cc3F)c2cc1OC [Example 115, 1-(2-cyclohexylsulfanylacetyl)-3-[4-(6,7-dimethoxyquinolin-4-yloxy)-3-fluorophenyl]urea]
298	COc1cc2nccc(Oc3ccc(NC(=O)NC(=O)CN4CCc5ccccc54)cc3Cl)c2cc1OC [Example 8, 1-[3-chloro-4-(6,7-dimethoxyquinolin-4-yloxy)-phenyl]-3-[2-(2,3-dihydro-1H-1-indol-1-yl)acetyl]-urea]
246	COc1cc2nccc(Oc3ccc(NC(=S)NC(=O)CCC4CCCC4)cc3)c2cc1OC [Example 161, 1-(3-cyclopentylpropionyl)-3-[4-(6,7-dimethoxyquinolin-4-yloxy)phenyl]thiourea]
483	COc1cc2nccc(Oc3ccc(NC(=O)NC(=O)Nc4c(Cl)cccc4Cl)cc3)c2cc1OC [Example 263, N-(2,6-dichlorophenyl)-({[4-(6,7-dimethoxy-quinolin-4-yloxy)anilino]carbonyl}amino)methanamide]
140	COc1cc2nccc(Oc3ccc(NC(=S)NC(=O)c4cccc5ccccc45)cc3)c2cc1OC [Example 56, 1-[4-(6,7-dimethoxyquinolin-4-yloxy)phenyl]-3-(naphthalene-1-carbonyl)thiourea]

Structure (SMILES)	IC50 [nM]
COc1cc2c(Oc3ccc(NC(=O)NC(=O)Cc4ccc(F)cc4)cc3F)ccnc2cc1OCCCCN1CCOCC1 [Example 41, 1-{3-fluoro-4-[6-methoxy-7-(4-morpholin-4-yl-butoxy)quinolin-4-yloxy]phenyl}-3-[2-(4-fluorophenyl)-acetyl]urea]	281
COc1cc2c(Oc3ccc(NC(=O)NC(=O)Cc4ccc(F)cc4)c(F)c3)ccnc2cc1OCCCCN1CCCCC1 [Example 45, 1-{2-fluoro-4-[6-methoxy-7-(4-piperidine-1-yl-butoxy)quinolin-4-yloxy]phenyl}-3-[2-(4-fluorophenyl)-acetyl]urea]	207
COc1cc2c(Oc3ccc(NC(=O)NC(=O)Cc4ccc(F)cc4)cc3F)ccnc2cc1OCCCCN1CCN(C)CC1 [Example 43, 1-(3-fluoro-4-{6-methoxy-7-[4-(4-methyl-piperazin-1-yl)-butoxy]quinolin-4-yloxy}phenyl)-3-[2-(4-fluorophenyl)acetyl]urea]	167
